{"source": "patent US12403079B2", "about": "“Ingredient in sunscreen compositions” (MAGIC BLUE, LLC, priority 2019, dated 2025)", "key": {"[1]": {"tested_on": "primary human skin cells (skin fibroblast cells or primary keratinocytes)", "test": "in vitro 2D skin model, cell proliferation", "assay_type": "cell-based", "conditions": "after 13 days; for cell proliferation: 100 nM and 1 μM, relative to control treatment", "text": "Methylene Blue: [7-(dimethylamino) phenthiazin-3-ylldene]-dImethylazinium chloride, or more simply as methylthloninium chloride. Also included are all hydrates, particularly, the hydrate or trihydrate of Methylene Blue as well as all dermatologically acceptable salts thereof, such as the chloride salt. All forms of Methylene Blue are also abbreviated herein as MB and are to be understood as such. about: as used herein means±10%. […] Examples of conventional sunscreen excipients or adjuvants, include, for example, xanthan gums, corn starch, film-forming polymers and/or copolymers, glycerin, emulsifiers, moisturizing agents and cosmetic ingredients. Further examples of conventional sunscreen composition excipients or adjuvants are described in U.S. Pat. Nos. 9,149,664; 8,128,913; 9,050,475 and 6,800,274, all of which are incorporated herein by reference in the entirety. The present invention specifically avoids the inclusion of Oxybenzone and/or Octinoxate in the aforementioned U.S. patents which are used as UVA and/or UVB absorbers, and uses instead, Methylene Blue or any of the hydrates or dermatologically-acceptable salts thereof. Further, it is explicitly contemplated that conventional inorganic compounds, such as zinc oxide and/or titanium oxide, for example, may be used in formulating the sunscreen composition of the present invention. Also, polymers and/or copolymers that are conventionally used as sunscreen stabilizer emollients, such as polyester-8, may also be used in the present sunscreen formulations. Dermatologically-acceptable salts of MB: includes all salts recognized as safe for application to human skin, but generally, the chloride and/or hydrochloride salts are preferred. In vitro 2D skin test: This test is described in by Xiong, et al. in Scientific Reports 7, Article number: 2475 (2017), using primary human skin cells (skin fibroblast cells or primary keratinocytes). Sunscreen agents excluded from the present invention: the conventional sunscreen compounds Oxybenzone and Octinoxate are explicitly excluded from this invention. However, other conventional FDA-approved UVA and UVB absorbers may be used in combination with MB, its hydrates or salts in the present invention. SPF: means a “sun protection factor” defined at 21 USC 352.1 et seq. using the term MED, which in turn means Minimal Erythema Dose, which is defined as the quantity of erythema-effective energy (expressed in Joules per square meter) required to produce the first perceptible redness reaction with clearly defined borders. […]"}, "[2]": {"tested_on": "primary human skin cells (skin fibroblast cells or primary keratinocytes)", "test": "in vitro 2D skin model, cellular ROS levels by MitoSOX", "assay_type": "cell-based", "conditions": "100 nM and 1 μM, 0.1% DMSO solvent control", "text": "Methylene Blue: [7-(dimethylamino) phenthiazin-3-ylldene]-dImethylazinium chloride, or more simply as methylthloninium chloride. Also included are all hydrates, particularly, the hydrate or trihydrate of Methylene Blue as well as all dermatologically acceptable salts thereof, such as the chloride salt. All forms of Methylene Blue are also abbreviated herein as MB and are to be understood as such. about: as used herein means±10%. […] Examples of conventional sunscreen excipients or adjuvants, include, for example, xanthan gums, corn starch, film-forming polymers and/or copolymers, glycerin, emulsifiers, moisturizing agents and cosmetic ingredients. Further examples of conventional sunscreen composition excipients or adjuvants are described in U.S. Pat. Nos. 9,149,664; 8,128,913; 9,050,475 and 6,800,274, all of which are incorporated herein by reference in the entirety. […] SPF: means a “sun protection factor” defined at 21 USC 352.1 et seq. using the term MED, which in turn means Minimal Erythema Dose, which is defined as the quantity of erythema-effective energy (expressed in Joules per square meter) required to produce the first perceptible redness reaction with clearly defined borders. […]"}, "[3]": {"conditions": "scale of 1-10 (with 10 being the worst); cited from earlier work"}, "[4]": {"test": "spectrophotometric UV absorption of dilute solutions", "assay_type": "physicochemical", "conditions": "1 mM, MB versus BP-3", "experimental": "In this example, the absorption characteristics based on spectrophotometric analysis of various dilute solutions of each of MB and oxybenzone (BP-3) were measured and then compared. The solution concentrations for each of MB and BP-3 were 100 μM and 1 mM."}, "[5]": {"tested_on": "human skin fibroblasts", "test": "recovery of MB-pretreated skin fibroblasts after UVB radiation (cell viability, survival)", "assay_type": "cell-based", "conditions": "100 nM pre-treatment for two weeks", "experimental": "In this example, the protection ability of MB against UVB radiation was measured. […] Here, a preliminary study was conducted in which human skin fibroblasts were pre-treated with MB at 100 nM concentration for two weeks and then exposed to 0, 5, 10 and 20 seconds of UVB radiation at 1100 mW/cm^2. In this preliminary study, both groups, i.e., MB-exposed skin cells and the control group, were exposed to the same amount of UVB radiation."}, "[6]": {"tested_on": "human skin fibroblasts", "test": "gamma H2AX levels (DNA double strand breakage) after UVB exposure", "assay_type": "cell-based", "conditions": "24 hours after UVB exposure, 100 nM pre-treatment; control group doubled", "experimental": "In this example, the protection ability of MB against UVB radiation was measured. […] Here, a preliminary study was conducted in which human skin fibroblasts were pre-treated with MB at 100 nM concentration for two weeks and then exposed to 0, 5, 10 and 20 seconds of UVB radiation at 1100 mW/cm^2.\nSpecifically, the histone H2AX Is phosphorylated to a gamma form (gamma H2AX) upon DNA double strand breakage and levels of gamma H2AX positively correlate with the presence of DNA breaks, which are commonly generated by UVB radiation."}, "[7]": {"tested_on": "human keratinocyte cells", "test": "cell death of keratinocytes after harsh UVB irradiation", "assay_type": "cell-based", "conditions": "5 days, versus control human keratinocyte cells"}, "[8]": {"tested_on": "Umbrella xenia", "test": "soft coral exposure in seawater for one week", "assay_type": "in vivo", "conditions": "0.5 and 1.0 μM in seawater", "text": "Samples of Umbrella xenia were placed in individual containers filled with seawater plus any one of MB or Oxybenzone or Octinoxate for one week. All of the containers were otherwise under the exact same temperature, lighting and water flow conditions. Separate containers were used for both “Control” (nothing added) and DMSO, also added in the same two concentrations specified below for MB, Oxybenzone and Octinoxate."}}, "data": [{"smiles": "COc1ccc(C(=O)c2ccccc2)c(O)c1", "note": "[BP-3]", "values": [{"measurement": "cell proliferation", "setting": "[1]", "value": "no changes in growth"}, {"measurement": "cellular reactive oxygen species (ROS) levels by MitoSOX", "setting": "[2]", "value": "elevated ROS levels"}, {"measurement": "EWG hazard score", "setting": "[3]", "value": 8}]}, {"smiles": "CN(C)c1ccc2nc3ccc(=[N+](C)C)cc-3sc2c1", "note": "[MB, [7-(dimethylamino)phenthiazin-3-ylldene]-dImethylazinium chloride]", "values": [{"measurement": "cell proliferation", "setting": "[1]", "value": "increase in cell proliferation"}, {"measurement": "cell number reading (FIG. 1)", "setting": "[1]; 100 nM", "value": "greatest cell number reading"}, {"measurement": "cell number reading (FIG. 1)", "setting": "[1]; 1 μM", "value": "somewhat less"}, {"measurement": "cellular reactive oxygen species (ROS) levels by MitoSOX", "setting": "[2]", "value": "dosage-dependent reduction in ROS"}, {"measurement": "protection against UVB radiation (absorption)", "setting": "[4]", "value": "superior protection against UVB radiation"}, {"measurement": "recovery after UVB radiation (cell viability)", "setting": "[5]; UVB 0-20 seconds at 1100 mW/cm^2, five days recovery, versus control group", "value": "significantly superior recovery"}, {"measurement": "survival after high dosage-UVB radiation (imaging analysis)", "setting": "[5]; versus control samples", "value": "superior survival"}, {"measurement": "levels of gamma H2AX", "setting": "[6]", "value": "reduced levels of gamma H2AX"}, {"measurement": "rescue of cell death after harsh UVB irradiation (FIG. 6)", "setting": "[7]", "value": "partially rescue cell death"}, {"measurement": "effects on soft corals", "setting": "[8]", "value": "No adverse effects"}]}]}
